The values that follow come from the supplement of paper PMC10307832.

Common to all, as to assay: relative viability (nuclei count vs DMSO), 5 days (fraction); higher = more cells survive
Compound in one assay: CC1(COc2ccc3c(c2)ncn3-c2ccc3cccc(N4CCC(N)CC4)c3n2)COC1 [Crenolanib]
The gist of the method:
(§1)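 Viability is treated-well nuclei as a fraction of vehicle-well nuclei, reported as the median across plates. Before counting, lung cancer cell lines were kept overnight at 37 °C in 1536-well plates, pinned with five √10-spaced library-drug doses on vehicle-anchored plates, and left 5 days without medium change, then fixed, permeabilised and Hoechst-stained in one step, imaged at 4× and counted by MetaXpress. A plate passed only if control CV was below 25% and at least one doubling occurred.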

Compound in the next assay: O=C1NC(=O)[C@@H](c2cn3c4c(cccc24)CCC3)[C@@H]1c1c[nH]c2ccccc12 [Tivantinib]
The gist of the method: as §1

Compound in the assay “Crenolanib + Alpelisib”: CC1(COc2ccc3c(c2)ncn3-c2ccc3cccc(N4CCC(N)CC4)c3n2)COC1 [Crenolanib] + Cc1nc(NC(=O)N2CCC[C@H]2C(N)=O)sc1-c1ccnc(C(C)(C)C(F)(F)F)c1 [Alpelisib] (partner 2 µM)
An outline of the steps:
(§2)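 Each reported value is a median over duplicate plates. It expresses relative viability: treated-well nuclei count divided by vehicle-well nuclei count. Lung cancer cell lines in 1536-well plates were dosed by pin tool a day after seeding, alone with one drug or with a fixed anchor-drug dose plus five library-drug doses (not always all listed) in √10 steps, and nuclei were counted after 5 days.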

Compound in the assay “Tivantinib + Pemetrexed”: O=C1NC(=O)[C@@H](c2cn3c4c(cccc24)CCC3)[C@@H]1c1c[nH]c2ccccc12 [Tivantinib] + Nc1nc2[nH]cc(CCc3ccc(C(=O)N[C@@H](CCC(=O)O)C(=O)O)cc3)c2c(=O)[nH]1 [Pemetrexed] (partner 0.2 µM)
The gist of the method: as §2

HCC-366: the relative viability with Crenolanib (0.01 µM) worked out at 1.03; with Crenolanib (0.03162 µM) it was 1.03; with Crenolanib (0.1 µM), 0.958; with Crenolanib (0.3162 µM), 1.05; in the assay with Crenolanib (1 µM), 0.998; in the assay with Tivantinib (0.01 µM), 1.02. Further, the relative viability stood at 1.03 in the assay with Tivantinib (0.03162 µM); 0.994 in the assay with Tivantinib (0.1 µM); 0.955 with Tivantinib (0.3162 µM); 0.484 in the assay with Crenolanib + Alpelisib (first compound 0.01 µM); 0.655 in the assay with Crenolanib + Alpelisib (first compound 0.03162 µM); 0.351 with Crenolanib + Alpelisib (first compound 0.1 µM). The relative viability with Crenolanib + Alpelisib (first compound 0.3162 µM) is 0.428; with Crenolanib + Alpelisib (first compound 1 µM), 0.406; with Tivantinib + Pemetrexed (first compound 0.01 µM) it was 0.163; with Tivantinib + Pemetrexed (first compound 0.03162 µM) it was 0.145; in the assay with Tivantinib + Pemetrexed (first compound 0.1 µM), 0.148; in the assay with Tivantinib + Pemetrexed (first compound 0.3162 µM), 0.149.

Consider HCC-827, for which the relative viability came out at 1.08 with Crenolanib (0.01 µM); 1.02 with Crenolanib (0.03162 µM); 1.03 with Crenolanib (0.1 µM); 1.04 with Crenolanib (0.3162 µM); 0.958 with Crenolanib (1 µM); 1.06 with Tivantinib (0.01 µM). Moreover, the relative viability in the assay with Tivantinib (0.03162 µM) worked out at 1.07; with Tivantinib (0.1 µM), 1.04; with Tivantinib (0.3162 µM) it was 0.765; in the assay with Crenolanib + Alpelisib (first compound 0.01 µM), 1.04; in the assay with Crenolanib + Alpelisib (first compound 0.03162 µM), 1.01; with Crenolanib + Alpelisib (first compound 0.1 µM), 0.916. The relative viability with Crenolanib + Alpelisib (first compound 0.3162 µM) turned out to be 1.03; in the assay with Crenolanib + Alpelisib (first compound 1 µM) it was 0.992; with Tivantinib + Pemetrexed (first compound 0.01 µM) it was 0.251; with Tivantinib + Pemetrexed (first compound 0.03162 µM), 0.257; in the assay with Tivantinib + Pemetrexed (first compound 0.1 µM), 0.272.

Turning to HOP-62, the relative viability in the assay with Crenolanib (0.01 µM) amounted to 0.986; with Crenolanib (0.03162 µM), 1.02; in the assay with Crenolanib (0.1 µM), 0.977; with Crenolanib (0.3162 µM) it was 1.1; in the assay with Crenolanib (1 µM), 0.933; with Tivantinib (0.01 µM), 0.975. Further, the relative viability was determined as 0.787 with Tivantinib (0.03162 µM); 0.972 with Tivantinib (0.1 µM); 1.02 with Tivantinib (0.3162 µM); 0.851 with Crenolanib + Alpelisib (first compound 0.01 µM); 0.985 with Crenolanib + Alpelisib (first compound 0.03162 µM); 1.03 in the assay with Crenolanib + Alpelisib (first compound 0.1 µM). Further, the relative viability is 1.06 in the assay with Crenolanib + Alpelisib (first compound 0.3162 µM); 0.941 with Crenolanib + Alpelisib (first compound 1 µM); 0.333 in the assay with Tivantinib + Pemetrexed (first compound 0.01 µM); 0.29 in the assay with Tivantinib + Pemetrexed (first compound 0.03162 µM); 0.368 with Tivantinib + Pemetrexed (first compound 0.1 µM); 0.247 in the assay with Tivantinib + Pemetrexed (first compound 0.3162 µM).

For the cell line LC-2-ad, the relative viability in the assay with Crenolanib (0.01 µM) worked out at 1.01; in the assay with Crenolanib (0.03162 µM), 0.982; in the assay with Crenolanib (0.1 µM) it was 0.94; with Crenolanib (0.3162 µM), 0.976; in the assay with Crenolanib (1 µM), 0.866; with Tivantinib (0.01 µM), 0.977. The relative viability in the assay with Tivantinib (0.03162 µM) turned out to be 0.933; in the assay with Tivantinib (0.1 µM), 0.934; with Tivantinib (0.3162 µM) it was 1.01; with Crenolanib + Alpelisib (first compound 0.01 µM) it was 0.945; with Crenolanib + Alpelisib (first compound 0.03162 µM), 0.886; in the assay with Crenolanib + Alpelisib (first compound 0.1 µM) it was 0.815. Also, the relative viability with Crenolanib + Alpelisib (first compound 0.3162 µM) came out at 1.03; in the assay with Crenolanib + Alpelisib (first compound 1 µM), 0.89; in the assay with Tivantinib + Pemetrexed (first compound 0.01 µM), 0.3; with Tivantinib + Pemetrexed (first compound 0.03162 µM) it was 0.252; in the assay with Tivantinib + Pemetrexed (first compound 0.1 µM), 0.276; with Tivantinib + Pemetrexed (first compound 0.3162 µM), 0.259.

LCLC-97TM1: the relative viability amounted to 1.12 in the assay with Crenolanib (0.01 µM); 0.903 with Crenolanib (0.03162 µM); 0.93 with Crenolanib (0.1 µM); 1.05 in the assay with Crenolanib (0.3162 µM); 0.921 in the assay with Crenolanib (1 µM); 1.02 with Tivantinib (0.01 µM). Moreover, the relative viability with Tivantinib (0.03162 µM) turned out to be 0.813; with Tivantinib (0.1 µM), 0.961; with Tivantinib (0.3162 µM) it was 0.871; with Crenolanib + Alpelisib (first compound 0.01 µM), 0.257; with Crenolanib + Alpelisib (first compound 0.03162 µM), 0.287; in the assay with Crenolanib + Alpelisib (first compound 0.1 µM), 0.326. For the same cell line, the relative viability with Crenolanib + Alpelisib (first compound 0.3162 µM) turned out to be 0.287; with Crenolanib + Alpelisib (first compound 1 µM), 0.308; with Tivantinib + Pemetrexed (first compound 0.01 µM), 0.148; with Tivantinib + Pemetrexed (first compound 0.03162 µM) it was 0.165; in the assay with Tivantinib + Pemetrexed (first compound 0.1 µM) it was 0.157; with Tivantinib + Pemetrexed (first compound 0.3162 µM) it was 0.191.

With LCLC-103H, the relative viability stood at 1.01 with Crenolanib (0.01 µM); 1.01 with Crenolanib (0.03162 µM); 0.892 in the assay with Crenolanib (0.1 µM); 0.983 with Crenolanib (0.3162 µM); 0.92 with Crenolanib (1 µM); 0.895 with Tivantinib (0.01 µM). Further, the relative viability with Tivantinib (0.03162 µM) was found to be 0.842; with Tivantinib (0.1 µM), 0.963; with Tivantinib (0.3162 µM), 0.951; with Crenolanib + Alpelisib (first compound 0.01 µM) it was 0.852; in the assay with Crenolanib + Alpelisib (first compound 0.03162 µM) it was 0.859; with Crenolanib + Alpelisib (first compound 0.1 µM), 0.888. Moreover, the relative viability with Crenolanib + Alpelisib (first compound 0.3162 µM) worked out at 0.886; with Crenolanib + Alpelisib (first compound 1 µM), 0.942; with Tivantinib + Pemetrexed (first compound 0.01 µM), 0.472; in the assay with Tivantinib + Pemetrexed (first compound 0.03162 µM), 0.368; with Tivantinib + Pemetrexed (first compound 0.1 µM), 0.406; with Tivantinib + Pemetrexed (first compound 0.3162 µM), 0.432.

As for LK-2, the relative viability is 0.981 in the assay with Crenolanib (0.01 µM); 1.04 with Crenolanib (0.03162 µM); 0.979 with Crenolanib (0.1 µM); 1.14 with Crenolanib (0.3162 µM); 0.898 in the assay with Crenolanib (1 µM); 1.04 in the assay with Tivantinib (0.01 µM). The relative viability with Tivantinib (0.1 µM) was found to be 0.892; with Tivantinib (0.3162 µM), 0.89; with Crenolanib + Alpelisib (first compound 0.01 µM), 0.637; with Crenolanib + Alpelisib (first compound 0.03162 µM), 0.924; with Crenolanib + Alpelisib (first compound 0.1 µM), 1.1; with Crenolanib + Alpelisib (first compound 0.3162 µM) it was 0.956. Moreover, the relative viability worked out at 0.997 with Crenolanib + Alpelisib (first compound 1 µM); 0.261 in the assay with Tivantinib + Pemetrexed (first compound 0.01 µM); 0.286 in the assay with Tivantinib + Pemetrexed (first compound 0.03162 µM); 0.276 with Tivantinib + Pemetrexed (first compound 0.1 µM); 0.244 in the assay with Tivantinib + Pemetrexed (first compound 0.3162 µM).

As for LOU-NH91, the relative viability stood at 1.02 with Crenolanib (0.01 µM); 0.939 in the assay with Crenolanib (0.03162 µM); 0.929 with Crenolanib (0.1 µM); 0.891 with Crenolanib (0.3162 µM); 0.906 with Crenolanib (1 µM); 0.932 in the assay with Tivantinib (0.01 µM). Besides, the relative viability in the assay with Tivantinib (0.03162 µM) turned out to be 0.946; with Tivantinib (0.1 µM) it was 1.02; with Tivantinib (0.3162 µM), 0.747; with Crenolanib + Alpelisib (first compound 0.01 µM), 0.784; in the assay with Crenolanib + Alpelisib (first compound 0.03162 µM), 0.755; with Crenolanib + Alpelisib (first compound 0.1 µM), 0.635. Moreover, the relative viability in the assay with Crenolanib + Alpelisib (first compound 0.3162 µM) is 0.641; with Crenolanib + Alpelisib (first compound 1 µM), 0.694; with Tivantinib + Pemetrexed (first compound 0.01 µM), 0.394; with Tivantinib + Pemetrexed (first compound 0.03162 µM), 0.428; with Tivantinib + Pemetrexed (first compound 0.1 µM), 0.4; with Tivantinib + Pemetrexed (first compound 0.3162 µM) it was 0.468.
